# Source: paper PMC4267740, “Unprecedented Therapeutic Potential with a Combination of A2A/NR2B Receptor Antagonists as Observed in the 6-OHDA Lesioned Rat Model of Parkinson's Disease” (PLoS ONE, 2014)
# Entries after “also recorded” stand apart in the source; their conditions may differ.
# Legend:
# [1] = system: haloperidol-induced catalepsy; settings: threshold dose of Theophylline; cited from earlier work
# [2] = system: L-Dopa-induced dyskinesia; design: method as in PMID 18759356; settings: randomized double-blind placebo-controlled clinical trial; cited from earlier work
# [3] = system: rats with a unilateral lesion of the medial forebrain bundle; settings: cited from earlier work
# [4] = system: Reserpine-induced akinesia; design: method as in PMID 9918703; settings: cited from earlier work
# CYP3A = system: CYP3A; design: method as in PMID 18552277; settings: human subjects; cited from earlier work
# A2A = biological target: A2A; design: method as in PMID 21810444, PMID 9933143, PMID 17236762; settings: in vitro binding; rat or human; cited from earlier work
# [5] = system: unilateral 6-OHDA-lesioned rats; assay: Rearing counts in actometers, monotherapy (without L-Dopa); format: in vivo, rat
# Method: (§1) To protect norepinephrinergic neurons, animals were administered imipramine HCl (Sigma) 15 minutes before surgery. They were subsequently anesthetized with ketamine (Ceva, 75 mg/kg) and xylazine (Bayer, 10 mg/kg) and placed in stereotaxic frame (David Kopf Instrument). 6-OHDA was injected into the right ascending medial forebrain bundle at the following coordinates (in mm) relative to bregma and surface of the dura, AP = −3.5, ML = −1.5, DV = −8.7. Each rat received one injection of 6-OHDA (4 µg/µl) over a period of 5 minutes (0.5 µl/min) for a total of 10 µg per rat. Animals were monitored for 3 weeks to ensure full recovery and habituation to the environment and experimenters.
# (§2) On day 21 post surgery, all rats were challenged with a small dose of subcutaneously administered apomorphine (Sigma, 0.05 mg/kg). Rats showing more than 90 contralateral rotations (360°) over a 45-minute recording period were included in the study. […] For each experiment, rats were allocated to the different experimental groups in order to get the same mean level of basal activity measured at the apomorphine challenge amongst the different experimental groups.
# (§3) Drug-naïve separate rats were tested individually in clear acrylic chambers (LE8811 IR, Panlab). Locomotion was detected and measured by 16 infrared light-beam sensors located on each side of the enclosure at a height of 3 cm. Sensors were spaced such that the light beams formed a matrix of 15×15 squares over the surface. Activity counts were recorded on a computer and Acti-Track software (Actitrack, Panlab) was used to convert raw data into “distance traveled” and “rearing counts” for analysis as relevant dependent variables.
# (§4) Six different combinations of A2A/NR2B antagonists were tested without L-Dopa. For each combination, there were four different procedures: vehicle only; A2A antagonist followed by vehicle; vehicle followed by the NR2B antagonist and A2A antagonist followed by the NR2B antagonist. The drugs, doses and combinations are described in Table 3. After drug administration, rats were placed in actometers (open-field) for monitoring the general level of motor activity (distance traveled and rearing counts).
# (§5) Before undertaking the study, each A2A and NR2B antagonist was tested individually. The doses were selected on the basis of preliminary dose-response curves performed separately for each drug and submaximal dose (i.e. response observed is not at its maximal level) of each drug was selected for the combination studies. The two drugs were administered separately via an intraperitoneal (ip) injection with a 2-minute interval between the two drugs. Five minutes after the second injection, animals were placed in the testing cage for behavioural recording. Due to formulation and exposure issues, Tozadenant and Radiprodil had to be administered orally and therefore recording was started 60 minutes post dosing at this corresponds to maximum plasma concentrations. Eight drug-naïve animals were used for each of the four procedures; 32 in total for each combination. All behavioral experiments were conducted between 8.00 AM and 2.00 PM at the latest. Preliminary pharmacokinetic assays investigated the plasma and brain disposition of selected drugs administered alone or in combination (ie. Tozadenant/Radiprodil, and Sch-58261/Co-101244; 3 animals per group). Tozadenant and Radiprodil were measured in samples obtained 60 minutes after single oral administration at 30 mg/kg. Sch-58261 and Co-101244 were measured in samples collected 90 min after single intraperitoneal administration at 3 mg/kg.
# (§6) The effects of A2A and NR2B antagonists on the level of motor activity (i.e. distance traveled and rearing counts) were assessed with three-way mixed ANOVA, combining the A2A receptor antagonist (2 levels, vehicle and the A2A drug) and the NR2B antagonist (2 levels, vehicle and the NR2B drug) as between-group factors with the time as within-subjects factor (6 or 9 levels). […]
# A2B = biological target: A2B; design: method as in PMID 21810444, PMID 9933143, PMID 17236762; settings: in vitro binding; rat or human; cited from earlier work
# PD patients = settings: cited from earlier work
# A3 = biological target: A3; design: method as in PMID 21810444, PMID 9933143, PMID 17236762; settings: in vitro binding; rat or human; cited from earlier work
# P-gp = system: P-gp; design: method as in PMID 18552277; settings: human subjects; cited from earlier work
# A1 = biological target: A1; design: method as in PMID 21810444, PMID 9933143, PMID 17236762; settings: in vitro binding; rat or human; cited from earlier work
# [6] = system: unilateral 6-OHDA-lesioned rats; assay: Distance traveled in actometers, monotherapy (without L-Dopa); format: in vivo, rat
# Method: as §1, §2, §3, §4, §5, §6
# P-glycoprotein (Pgp) = system: P-glycoprotein (Pgp); design: method as in earlier work; settings: ref 62 (Preladenant), 49 (Merck 22); cited from earlier work
# [7] = system: unilateral 6-OHDA-lesioned rats; assay: L-Dopa-induced contralateral rotations in rotometers, add-on therapy; format: in vivo, rat; settings: add-on to L-Dopa 25 mg/kg ip, Preladenant 0.03 mg/kg ip
# Method: as §1, §2
# The rats tested one week earlier for general activity (actometers) were once again placed in clear acrylic individual chambers (50×45 cm) with the same treatment (drug and dose) than that previously received plus L-Dopa. Eight chambers were placed on a level, clear glass bottom, held by a robust frame, and were subdivided into four individual test cages of 25×22 cm. A removable acrylic plate served as a lid.
# Rotational behaviour was recorded using a home-made computerized system. Rats were fixed in a harness and linked to mechanical sensors connected directly to a computer. Each 360° clock-wise or counter clock-wise turn was automatically recorded for up to 120 minutes at the maximum. Throughout the experiments, rats were allocated to individual test cages.
# Four different combinations were administered as add-on treatment to a low active dose of L-Dopa (25 mg/kg, ip) without any dopa decarboxylase inhibitor to avoid any additional pharmacokinetic interaction. The doses of the compounds were selected on the basis of preliminary dose-response curves performed separately for each drug. To avoid ceiling effect with L-Dopa, only submaximal doses of each drug were selected for testing (as it was done previously for monotherapy). Eight L-Dopa naïve animals were tested for each of the four pharmacological condition: vehicle and L-Dopa (25 mg/kg); A2A antagonist followed by vehicle and L-Dopa; vehicle followed by NR2B antagonist and L-Dopa; A2A antagonist followed by NR2B and L-Dopa. Due to the dominance of the L-Dopa-effect on the lesioned striatum, the unilateral 6-OHDA-lesioned rats rotated after the drugs administration and behavioral activity was recorded in rotometers (i.e. level of contralateral rotations).
# All drugs were administered i.p. 25 minutes before behavioural recording, except for the Tozadenant and Radiprodil combination which was administered orally 60 minutes before behavioural recording. As Radiprodil was administered orally, L-Dopa was given 45 minutes after the Radiprodil injection whereas for the other combinations L-Dopa was given 15 minutes after the NR2B drug. The drugs, the doses and the combinations given in co-administration to L-Dopa are described in Table 4 .
# The impact of treatment with A2A or NR2B receptor antagonists, given alone or in combination, on the effect of L-Dopa on contralateral rotations was also analysed with a three-way mixed ANOVA. The ANOVA included the A2A and the NR2B receptor antagonists (both, 2 levels, vehicle and the drug) as between-group factors combined with time (12 levels) as within-subjects factor. […] The ability of the combination to increase and prolong the activity of L-Dopa was also explored. Consequently, drug effects were analyzed for every 10-min time interval. […]
# cytochrome P-450 (CYP) = system: cytochrome P-450 (CYP); design: method as in earlier work; settings: ref 62 (Preladenant), 49 (Merck 22); cited from earlier work
# [8] = system: unilaterally 6-OHDA-lesioned rats; design: method as in PMID 15081591; settings: rotometer; cited from earlier work
# [9] = Istradefylline 0.3 mg/kg ip, Co-101244 1 mg/kg ip
# [10] = Preladenant 0.1 mg/kg ip, Merck 22 0.3 mg/kg ip
# [11] = Preladenant 0.1 mg/kg ip, Radiprodil 1 mg/kg ip
structure (smiles),measurement,setting,value
C/C(=C\C(N)C(=O)O)CP(=O)(O)O (stereo not drawn) [CGP37849],Effect of co-administration with Theophylline on haloperidol-induced catalepsy,[1],potentiate the effects of a threshold dose of Theophylline
"C[C@@H]([C@@H](O)c1ccc(O)cc1)N1CCC(O)(c2ccccc2)CC1 [CP-101,606]",Efficacy in counteracting L-Dopa-induced dyskinesia,[2],demonstrated efficacy
O=C(O)C1CN(CCCP(=O)(O)O)CCN1 (stereo not drawn) [CPP],Effect on stepping deficit,[3],ameliorate the stepping deficit
CC(C(O)c1ccc(O)cc1)N1CCC(Cc2ccccc2)CC1 (stereo not drawn) [Ifenprodil],Effect on Reserpine-induced akinesia,[4],counteract Reserpine-induced akinesia at the highest dose tested
CCn1c(=O)c2c(nc(/C=C/c3ccc(OC)c(OC)c3)n2C)n(CC)c1=O [Istradefylline],Effect on CYP3A-mediated drug metabolism,CYP3A,does not impair
same,Ki,A2A,12 nM
same,"Rearing counts, drugs alone vs vehicle, p (Newman-Keuls)",[5]; [9],"Istradefylline, p<0.01"
same,"Rearing counts, drugs main effect, p (three-way mixed ANOVA)",[5]; [9],p<0.001
same,"Rearing counts, drugs × time effect, p (three-way mixed ANOVA)",[5]; [9],p<0.01
same,Ki,A2B,> 10000 nM
same,Clinical efficacy when combined with L-Dopa,PD patients; PD patients,demonstrated significant efficacy
same,Clinical benefit as monotherapy (without L-Dopa),PD patients; de-novo PD patients,did not produce statistically significant benefits
same,Ki,A3,4470 nM
same,Inhibition of P-gp,P-gp,modest inhibition
same,Ki,A1,841 nM
same,"Distance traveled, drugs alone vs vehicle, p (Newman-Keuls)",[6]; [9],not all drugs when administered alone improved distance traveled; also recorded: Not significant
same,"Distance traveled, drugs main effect, p (three-way mixed ANOVA)",[6]; [9],p<0.001
same,"Distance traveled, drugs × time effect, p (three-way mixed ANOVA)",[6]; [9],Not significant
Cc1ccc(COC(=O)N2CC[C@H](CNc3ncccn3)[C@H](F)C2)cc1 [MK-0657],Result of clinical study as monotherapy,PD patients; single clinical study,negative results
COCCOc1ccc(N2CCN(CCn3ncc4c3nc(N)n3nc(-c5ccco5)nc43)CC2)cc1 [Preladenant],In-vitro drug interactions with P-glycoprotein (Pgp),P-glycoprotein (Pgp),devoid of in-vitro risks of drug interactions
same,"Contralateral rotations, drugs alone vs vehicle, p (planned contrasts on each 10-min interval)",[7]; Merck 22 1 mg/kg ip,Not significant
same,"Contralateral rotations, drugs main effect, p (three-way mixed ANOVA)",[7]; Merck 22 1 mg/kg ip,p<0.05
same,"Contralateral rotations, drugs × time effect, p (three-way mixed ANOVA)",[7]; Merck 22 1 mg/kg ip,p<0.001
same,"Contralateral rotations, drugs alone vs vehicle, p (planned contrasts on each 10-min interval)",[7]; Radiprodil 0.3 mg/kg ip,Not significant
same,"Contralateral rotations, drugs main effect, p (three-way mixed ANOVA)",[7]; Radiprodil 0.3 mg/kg ip,p<0.01
same,"Contralateral rotations, drugs × time effect, p (three-way mixed ANOVA)",[7]; Radiprodil 0.3 mg/kg ip,p<0.001
same,"Rearing counts, drugs alone vs vehicle, p (Newman-Keuls)",[5]; [10],Preladenant p<0.001
same,"Rearing counts, drugs main effect, p (three-way mixed ANOVA)",[5]; [10],p<0.001
same,"Rearing counts, drugs × time effect, p (three-way mixed ANOVA)",[5]; [10],p<0.001
same,"Rearing counts, drugs alone vs vehicle, p (Newman-Keuls)",[5]; [11],Preladenant p<0.001
same,"Rearing counts, drugs main effect, p (three-way mixed ANOVA)",[5]; [11],p<0.001
same,"Rearing counts, drugs × time effect, p (three-way mixed ANOVA)",[5]; [11],Not significant
same,Ki,A2B,> 1700 nM
same,In-vitro drug interactions with cytochrome P-450 (CYP),cytochrome P-450 (CYP),devoid of in-vitro risks of drug interactions
same,Ki,A3,> 1000 nM
same,Ki,A1,> 1000 nM
same,"Distance traveled, drugs alone vs vehicle, p (Newman-Keuls)",[6]; [10],Preladenant: p<0.001
same,"Distance traveled, drugs main effect, p (three-way mixed ANOVA)",[6]; [10],p<0.001
same,"Distance traveled, drugs × time effect, p (three-way mixed ANOVA)",[6]; [10],Not significant
same,"Distance traveled, drugs alone vs vehicle, p (Newman-Keuls)",[6]; [11],Both p<0.05
same,"Distance traveled, drugs main effect, p (three-way mixed ANOVA)",[6]; [11],p<0.001
same,"Distance traveled, drugs × time effect, p (three-way mixed ANOVA)",[6]; [11],Not significant
same,"Distance traveled, drug alone in comparison to vehicle-treated controls",[6]; drug administered alone,significant increase
CC(C(O)c1ccc(O)cc1)N1CCC(Cc2ccccc2)CC1 (stereo not drawn) [Ro 25–6981],Induction of contralateral rotations as monotherapy,[8],inducing contralateral rotations
C[C@]12N[C@H](Cc3ccccc31)c1ccccc12 [dizocilpine],Effect of co-administration with Theophylline on haloperidol-induced catalepsy,[1],potentiate the effects of a threshold dose of Theophylline
